In PMC10385977, “On the Road towards Small-Molecule Programmed Cell Death 1 Ligand 1 Positron Emission Tomography Tracers: A Ligand-Based Drug Design Approach” (Pharmaceuticals, 2023):
Where two headings read alike, the source gives them in different places. Positions of bridges follow the written chain, without caps; N, C: chain ends. Non-standard residues stand in square brackets, D forms with d. Residues, ends and D or L forms follow the SMILES beside them. NMeNle = CCCC[C@H](NC)C(=O)O; NMeA = CN[C@@H](C)C(=O)O; Sar = CNCC(=O)O

Key:
human PD-L1 [1] = target: T1, human PD-L1 (Homo sapiens, UniProt Q9NZQ7); design: method as in doi:10.14205/2309-4435.2013.01.01.6
T1 construct: purchased Cisbio Bioassays SAS 64PD1PEG

human PD-L1 [2] = target: T1, human PD-L1; assay: HTRF PD-1/PD-L1 Binding Assay Kit (Cisbio); conditions: for BEI (binding efficiency index): BEI = −logIC50/(molecular weight/1000); for LE (ligand efficiency): LE = −1.4(logIC50)/Nheavy atoms; for LELP (ligand-efficiency-dependent lipophilicity efficiency): LELP = µHPLC logPOWpH 7.4/LE; for LLE (ligand lipophilicity efficiency): LLE = −logIC50 − µHPLC logPOWpH 7.4
[3] = In-solution stability in 1:1 DMSO/HEPES buffer (HPLC); conditions: for remained intact: within the 20-day time period; for decomposition of the parent compound: 20 days
[4] = HPLC lipophilicity measurement (µHPLC logPOWpH 7.4, logD); type: physicochemical; conditions: HPLC on an apHera column (retention time method); pH 7.4, HPLC method, mean ± SD
Method: An equilibration time of 2 min before measurements was set. Solvent “A” consisted of methanol (Merck KGaA, Darmstadt, Germany) and solvent “B” of 10 mM sodium phosphate buffer pH 7.4. […] The measurements of lipophilicity of precursors and products were performed according to the HPLC method of Donovan and Pescatore and Vraka et al.. […] Three logP values of the reference substances were taken from the literature, resulting in a mean logP value of the analyte ( μHPLC logPOWpH 7.4analyte) . Furthermore, the values were compared to calculated logP (clogP) and topological polar surface area (tPSA) values from ChemDraw 20.1 (PerkinElmer, Inc., Waltham, MA, USA) as well as clogDpH7.4 values from MarvinSketch 22.13 (ChemAxon Ltd., Budapest, Hungary).

[5] = Metabolic stability in human liver microsomes; type: in vitro ADME; conditions: incubation for 40 min
Method: Metabolic stability was assessed using pooled, mixed gender human liver microsomes (HLMs) (Corning, Corning, NY, USA) according to the supplied protocol. In short, 15 µL of HLM (20 mg/mL), 15 µL of NADPH regenerating system solution A (Corning, Corning, NY, USA), 3 µL of solution B (Corning, Corning, NY, USA) and 257 µL of a 1:10 dilution of 10× PBS concentrate (MORPHISTO, Offenbach am Main, Germany) were pre-incubated at 37 °C for 10 min. Aliquots were drawn 0, 10, 20, 30 and 40 min after addition of 10 µL radiotracer, subsequently quenched with the same amount of MeCN, centrifuged for 4 min at 21,500× g and analyzed by HPLC setup 3.

hPD-L1 = system: hPD-L1; design: method as in earlier work; conditions: HTRF assay; cited from earlier work

T1 sequence (Q9NZQ7 19-238 limits assumed): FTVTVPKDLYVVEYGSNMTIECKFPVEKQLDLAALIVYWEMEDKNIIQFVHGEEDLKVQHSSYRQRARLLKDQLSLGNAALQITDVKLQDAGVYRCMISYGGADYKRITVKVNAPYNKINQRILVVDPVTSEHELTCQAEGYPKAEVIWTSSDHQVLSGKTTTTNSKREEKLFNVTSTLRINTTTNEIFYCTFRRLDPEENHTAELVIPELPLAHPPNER

Molecule | BEI (binding efficiency index) (human PD-L1 [2]) | LE (ligand efficiency) (human PD-L1 [2]) | LELP (ligand-efficiency-dependent lipophilicity efficiency) (human PD-L1 [2]) | LLE (ligand lipophilicity efficiency) (human PD-L1 [2]) | IC50 (human PD-L1 [2]; read-out: IC50 (This Work)) | remained intact [3] | chromatographic logD [4] | decomposition of the parent compound [3] | also measured
Atezolizumab: anti-PD-L1 antibody, positive control (MedChemExpress) |  |  |  |  |  |  |  |  | IC50 (human PD-L1 [1]; HTRF assay, vendor value; read-out: IC50 (Cisbio); cited from earlier work): 3.84 nM; IC50 (human PD-L1 [2]; HTRF PD-1/PD-L1 binding assay, mean ± SD, three experiments, read-out: IC50 (This Work)): 4.07 ± 0.42 nM
COC(=O)[C@@H]1CCCCN1Cc1c(OC)cc(OCc2cccc(-c3ccccc3)c2C)cc1OC [Substance 1a, Methyl (S)-1-(2,6-Dimethoxy-4-((2-methyl-[1,1′-biphenyl]-3-yl)methoxy)benzyl)piperidine-2-carboxylate] | 10.7 | 0.20 kcal/mol/Heavy Atom | 24.0 | 0.3 | 5760 ± 613 nM | over 85% | 4.9 ± 0.27 |  | 
COc1nc(OCc2cccc(-c3ccccc3)c2C)ccc1CN([11CH3])CCNC(C)=O [[^11C]2a] |  |  |  |  |  |  |  |  | intact tracer [5]: ~ 90%
COc1nc(OCc2cccc(-c3ccccc3)c2C)ccc1CNCCNC(C)=O [Substance 2, N-(2-(((2-methoxy-6-((2-methyl-[1,1′-biphenyl]-3-yl)methoxy)pyridin-3-yl)methyl)amino)ethyl)acetamide, reference compound] |  |  |  |  |  |  | 3.88 ± 0.12 | less than 2% | 
COc1cc(OCc2cccc(-c3ccccc3)c2C)cc(OC)c1CN1CCCC[C@H]1C(=O)OCCF [Substance 1b, 2-Fluoroethyl (S)-1-(2,6-Dimethoxy-4-((2-methyl-[1,1′-biphenyl]-3-yl)methoxy)benzyl)piperidine-2-carboxylate] | 11.4 | 0.22 kcal/mol/Heavy Atom | 22.9 | 0.9 | 1440 ± 144 nM | over 85% | 5.02 ± 0.28 |  | 
COc1cc(OCc2cccc(-c3ccccc3)c2C)cc(OC)c1CN1CCCC[C@H]1C(=O)O [Substance 1, (S)-1-(2,6-dimethoxy-4-((2-methyl-[1,1′-biphenyl]-3-yl)methoxy)benzyl)piperidine-2-carboxylic acid, reference compound] |  |  |  |  |  | over 85% | 3.16 ± 0.16 |  | IC50 (hPD-L1): […]
COc1nc(OCc2cccc(-c3ccccc3)c2C)ccc1CN(CCNC(C)=O)C(=O)OCCF [Substance 2d, 2-Fluoroethyl (2-Acetamidoethyl)((2-methoxy-6-((2-methyl-[1,1′-biphenyl]-3-yl)methoxy)pyridin-3-yl)methyl)carbamate] | 9.9 | 0.19 kcal/mol/Heavy Atom | 22.2 | 0.8 | 9880 ± 1390 nM |  | 4.23 ± 0.17 | less than 2% | dose-response curve in HTRF assay (human PD-L1 [2]; HTRF binding curves): No full dose response curves were observed
COc1nc(OCc2cccc(-c3ccccc3)c2C)ccc1CN(C)CCN(C)C(C)=O [Substance 2c, N-(2-(((2-Methoxy-6-((2-methyl-[1,1′-biphenyl]-3-yl)methoxy)pyridin-3-yl)methyl)(methyl)amino)ethyl)-N-methylacetamide] | 13.1 | 0.25 kcal/mol/Heavy Atom | 17.1 | 1.6 | 1310 ± 185 nM |  | 4.28 ± 0.18 | less than 2% | 
CCCC[C@H]1C(=O)N(C)[C@@H](CCCC)C(=O)N[C@@H](CCCNC(=N)N)C(=O)N[C@H](C(=O)NCC(N)=O)CSCC(=O)N[C@@H](Cc2ccccc2)C(=O)N(C)[C@@H](C)C(=O)N[C@@H](CC(N)=O)C(=O)N2CCC[C@H]2C(=O)N[C@@H](Cc2c[nH]cn2)C(=O)N[C@@H](CC(C)C)C(=O)N(C)CC(=O)N[C@@H](Cc2c[nH]c3ccccc23)C(=O)N[C@@H](CO)C(=O)N[C@@H](Cc2c[nH]c3ccccc23)C(=O)N1C [Inhibitor 3, reference compound] ({CH2CO}-F[NMeA]NPHL[Sar]WSW[NMeNle][NMeNle]RCG-NH2; thioether N-14; N-terminus and C-terminus assumed) |  |  |  |  |  |  |  |  | IC50 (human PD-L1 [1]; read-out: IC50 (Cisbio); HTRF assay, vendor value; cited from earlier work): 146 nM; IC50 (human PD-L1 [2]): 113 ± 45 nM
COc1nc(OCc2cccc(-c3ccccc3)c2C)ccc1CN(C)CCNC(C)=O [Substance 2a, N-(2-(((2-Methoxy-6-((2-methyl-[1,1′-biphenyl]-3-yl)methoxy)pyridin-3-yl)methyl)(methyl)amino)ethyl)acetamide] | 14.7 | 0.28 kcal/mol/Heavy Atom | 14.8 | 2.2 | 430 ± 62 nM |  | 4.13 ± 0.16 | less than 2% | fold reduced affinity compared to lead structure 2 (human PD-L1 [2]; ratio of HTRF IC50 values): 4.3 fold
COc1nc(OCc2cccc(-c3ccccc3)c2C)ccc1CNCCN(C)C(C)=O [Substance 2b, N-(2-(((2-Methoxy-6-((2-methyl-[1,1′-biphenyl]-3-yl)methoxy)pyridin-3-yl)methyl)amino)ethyl)-N-methylacetamide] | 14.5 | 0.27 kcal/mol/Heavy Atom | 14.4 | 2.3 | 524 ± 67 nM | over 85% | 3.97 ± 0.13 |  | 
